Molecules are shown by their SMILES.

The experiment has as its target T1, G protein-activated inward rectifier potassium channel 1 (Rattus norvegicus, UniProt P63251).
T1 sequence (P63251 whole entry): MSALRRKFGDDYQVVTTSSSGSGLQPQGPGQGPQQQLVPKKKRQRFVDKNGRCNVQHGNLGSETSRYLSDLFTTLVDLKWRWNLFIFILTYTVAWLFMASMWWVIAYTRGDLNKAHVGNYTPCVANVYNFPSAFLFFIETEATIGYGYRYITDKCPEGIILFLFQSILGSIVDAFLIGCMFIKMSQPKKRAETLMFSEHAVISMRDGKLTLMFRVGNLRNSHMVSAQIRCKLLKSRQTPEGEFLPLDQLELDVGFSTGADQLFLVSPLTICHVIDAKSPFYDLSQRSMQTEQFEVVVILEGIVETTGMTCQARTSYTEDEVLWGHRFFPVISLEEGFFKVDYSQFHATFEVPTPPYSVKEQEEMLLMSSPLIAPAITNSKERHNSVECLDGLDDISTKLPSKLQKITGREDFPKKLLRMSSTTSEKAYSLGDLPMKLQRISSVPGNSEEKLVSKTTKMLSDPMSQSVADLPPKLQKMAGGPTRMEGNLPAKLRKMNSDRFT
Briefly: alpha2C-dependent GIRK activation, antagonist reversal – cell-based, thallium flux, with rauwolscine, mechanism study for alpha2C adrenergic receptor project, dose response (AID 435016). The note with it: inactive by the depositor's call.
The EC50 is the concentration at which the effect is half-maximal. For `CCOC(=O)c1ccc(NC(=O)NC(C)C2CCCO2)cc1` (stereo not drawn), the EC50 is 41.4 µM. Under `CCSc1nnc(NC(=O)NC(CC)(C(F)(F)F)C(F)(F)F)s1` [1-(5-ethylsulfanyl-1,3,4-thiadiazol-2-yl)-3-[1,1,1-trifluoro-2-(trifluoromethyl)butan-2-yl]urea] stands 2.29 µM; under `O=c1c(-c2ccc3c(c2)OCCO3)c(C(F)(F)F)oc2cc(O)cc(O)c12` [3-(2,3-dihydro-1,4-benzodioxin-6-yl)-5,7-bis(oxidanyl)-2-(trifluoromethyl)chromen-4-one], 12.6 µM.

Source of the values: BindingDB's records for doi:10.7270/Q2WQ028B (Vanderbilt Screening Center For Gpcrs, Ion Channels and …, 2010).
